# Assay results from patent US20190233884A1 (University of Southern California, priority 2016, published 2019).
# Where a name gives a salt, the structure may show the parent alone. Read-outs that look alike come from different tables or passages of the source.
# Assays:
# [1] = clinical; conditions: human, in vivo
# Excerpt: Neither TPI renal clearance (CLren) nor or tubular secretory Clearance (CLsec) were associated with SNPs in MATE1 (rs2289669 or rs2252281) when tested individually (FIG. 8). […] (FIGS. 8-10). TPI is strongly associated with PFS and OS with regard to renal clearance difference by OCT2 and MATE1 gene-gene interaction.
# [2] = cited from earlier work
Clrenal [1] [L/h],CL renal ([1]; Clrenal) [mL/min],Structure (SMILES),"CLrenal and CLsec ([2]; healthy volunteers, OCT2 rs316019 heterozygote or homozygote along with MATE1 rs225281 heterozygote)",Clrenal ([2]; stratum 3 (MATE1 WT and OCT2 HM) compared with stratum 1 (MATE1 WT and OCT2 WT))
29.6,555,"N=C1CCCN1Cc1[nH]c(=O)[nH]c(=O)c1Cl [TPI, tipiracil hydrochloride]",–,–
–,–,"CN(C)C(=N)N=C(N)N [metformin, N,N-Dimethylimidodicarbonimidic diamide]",significantly lower,relatively higher
